Source: ChEMBL document CHEMBL2074098, “Estradiol 17 beta-D-glucuronide is a high-affinity substrate for oatp organic anion transporter” (Am J Physiol, 1996)

B1: Solute carrier organic anion transporter family member 1A1 (Rattus norvegicus) (protein)
chain: MEETEKKIATQEGRLFSKMKVFLLSLTCACLTKSLSGVYMNSMLTQIERQFDISTSVAGLINGSFEIGNLFFIVFVSYFGTKLHRPVVIGIGCVIMGLGCLLMSLPHFFMGRYEYETTISPTGNLSSNSFLCMENRTQTLKPTQDPAECVKEMKSLMWICVMVGNIIRGIGETPIVPLGISYIEDFAKSENSPLYIGILEMGKVAGPIFGLLLGSYCAQIYVDIGSVNTDDLTITPSDTRWVGAWWIGFLVCAGVNILTSIPFFFLPKALPKKGQQENVAVTKDGKVEKYGGQAREENLGITKDFLTFMKRLFCNPIYMLFILTSVLQVNGFINKFTFLPKYLEQQYGKSTAEAIFLIGVYSLPPICLGYLIGGFIMKKFKITVKKAAYLAFCLSVFEYLLFLCHFMLTCDNAAVAGLTTSYKGVQHQLHVESKVLADCNTRCSCSTNTWDPVCGDNGVAYMSACLAGCKKFVGTGTNMVFQDCSCIQSLGNSSAVLGLCKKGPECANRLQYFLILTIIISFIYSLTAIPGYMVFLRCVKSEEKSLGVGLHTFCIRVFAGIPAPVYFGALIDRTCLHWGTLKCGQRGACRMYDINSFRHIYLGLPIALRGSSYLPAFFILILMRKFQFPGDIDSSATDHTEMMLGEKESEHTDVHGSPQVENDGELKTKL

biological target: T1, Solute carrier organic anion transporter family member 1A1 (Rattus norvegicus, UniProt P46720); test: TP_TRANSPORTER: inhibition of E217betaG uptake in Oatp1-expressing HeLa cells; format: functional, cell-based
T1 sequence (P46720 whole entry): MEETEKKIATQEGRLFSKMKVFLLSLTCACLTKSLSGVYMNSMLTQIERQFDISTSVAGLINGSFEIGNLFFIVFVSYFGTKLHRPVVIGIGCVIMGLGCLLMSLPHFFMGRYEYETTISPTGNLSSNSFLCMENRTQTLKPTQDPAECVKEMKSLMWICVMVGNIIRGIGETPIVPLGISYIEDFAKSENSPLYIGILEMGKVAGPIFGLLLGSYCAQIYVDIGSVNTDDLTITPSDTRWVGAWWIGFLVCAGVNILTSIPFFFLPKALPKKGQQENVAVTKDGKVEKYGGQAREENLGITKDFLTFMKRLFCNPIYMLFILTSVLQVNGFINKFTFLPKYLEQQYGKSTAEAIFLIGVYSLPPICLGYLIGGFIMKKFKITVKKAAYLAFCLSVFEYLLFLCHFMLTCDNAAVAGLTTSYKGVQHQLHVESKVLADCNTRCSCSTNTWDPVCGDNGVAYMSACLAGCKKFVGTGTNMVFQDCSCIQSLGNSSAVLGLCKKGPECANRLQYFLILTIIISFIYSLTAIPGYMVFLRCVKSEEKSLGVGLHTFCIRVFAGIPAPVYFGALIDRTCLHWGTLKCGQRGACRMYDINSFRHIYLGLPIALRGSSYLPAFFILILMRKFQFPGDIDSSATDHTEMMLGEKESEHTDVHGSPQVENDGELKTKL

| Molecule | Ki [µM] |
| --- | --- |
| C#C[C@]1(OS(=O)(=O)O)CC[C@H]2[C@@H]3CCc4cc(O)ccc4[C@H]3CC[C@@]21C | 1.3 |
| C[C@]12CC[C@@H]3c4ccc(O)cc4CC[C@H]3[C@@H]1CC[C@@]2(O)CC(=O)O | > 200 |
| C[C@]12CC[C@@H]3c4ccc(OS(=O)(=O)O)cc4CC[C@H]3[C@@H]1CC[C@@H]2O | 1.1 |
| C[C@]12CC[C@@H]3c4ccc(O[C@@H]5O[C@H](C(=O)O)[C@@H](O)[C@H](O)[C@H]5O)cc4CC[C@H]3[C@@H]1CC[C@@H]2O | 9.7 |
| C[C@]12CC[C@@H](OS(=O)(=O)O)C[C@@H]1CC[C@@H]1[C@@H]2CC[C@]2(C)C(=O)CC[C@@H]12 | 2.4 |
| C[C@]12CC[C@H]3[C@@H](CCC4=CC(=O)CC[C@@]43C)[C@@H]1CC[C@@H]2O[C@@H]1O[C@H](C(=O)O)[C@@H](O)[C@H](O)[C@H]1O | 3.8 |
| C[C@]12C[C@H](O)[C@H]3[C@@H](CCC4=CC(=O)CC[C@@]43C)[C@@H]1CC[C@@H]2C(=O)COS(=O)(=O)O | 1.6 |
| CC(=O)O[C@@H]1CC[C@@]2(C)[C@@H](CC[C@@H]3[C@@H]2CC[C@]2(C)C(=O)CC[C@@H]32)C1 [ANDROSTERONE ACETATE] | 76.2 |
| C[C@]12CC[C@@H](O)C[C@@H]1CC[C@@H]1[C@@H]2CC[C@]2(C)C(=O)CC[C@@H]12 [ANDROSTERONE] | 10.6 |
| C[C@]12C[C@H](O)[C@H]3[C@@H](CCC4=CC(=O)CC[C@@]43C)[C@@H]1CC[C@@H]2C(=O)CO [CORTICOSTERONE] | 5.3 |
| C[C@]12CC[C@@H]3c4ccc(O)cc4CC[C@H]3[C@@H]1CC[C@@H]2O [ESTRADIOL] | 4.7 |
| C[C@]12CC[C@@H]3c4ccc(O)cc4CC[C@H]3[C@@H]1C[C@@H](O)[C@@H]2O [ESTRIOL] | 9.8 |
| C[C@]12CC[C@@H]3c4ccc(OS(=O)(=O)O)cc4CC[C@H]3[C@@H]1CCC2=O [ESTRONE SULFURIC ACID] | 1.3 |
| C[C@]12CC[C@@H]3c4ccc(O)cc4CC[C@H]3[C@@H]1CCC2=O [ESTRONE] | 15.7 |
| C[C@]12CC[C@H]3[C@@H](CCC4=CC(=O)CC[C@@]43C)[C@@H]1CC[C@@H]2O [TESTOSTERONE] | 5.4 |

substrate: C[C@]12CC[C@@H]3c4ccc(O)cc4CC[C@H]3[C@@H]1CC[C@@H]2O[C@@H]1O[C@H](C(=O)O)[C@@H](O)[C@H](O)[C@H]1O; test: TP_TRANSPORTER: uptake in Oatp1-expressing HeLa cells; format: functional, cell-based

| Molecule | Km [µM] |
| --- | --- |
| B1 | 3.2 |
